Source: patent US7355074B2, “Compounds having aromatic rings and side-chain amide-functionality and a method for transporting monovalent anions across biological membranes using the same” (The University of Maryland, priority 2003, dated 2008)

What was measured:
[1] = intravesicular pH of LUVs experiencing a Cl- gradient (calixarene amides); assay type: biochemical; settings: NaCl-loaded LUVs in isosmotic Na2SO4 buffer
Procedure: FIG. 8 illustrates changes in intravesicular pH upon addition of calixarene tetrabutylamide and calixarene octabutylamide to NaCl^+ loaded vesicles suspended in a sulfate phosphate buffer (emission of HPTS is used to monitor the pH changes in LUVs). At t=60 s, 20 μL of 500 μM of calixarene tetrabutylamide 2 (top trace) or the octabutylamide 3 (bottom trace) was added to 1.95 mL of a LUV suspension to give 1:100 ligand:lipid molar ratio. At t=500 s, 40 μL of 5% Triton X-100 was added. Intravesicular pH values were obtained as a function of the ratio of HPTS emission intensities at 510 nm, when excited at […]. The calibration was performed by measuring the HPTS emission intensities and the pH values of a […] HPTS solution in 10 mM phosphate buffer containing 100 mM NaCl. The calibration equation obtained (pH=1.1684×log (I0I1)+6.9807, r=0.998, where I0 is the emission intensity with excitation at […]) was used to convert the emission intensities into actual pH values.
The pH reached its maximum 250 s after addition of 2 and held constant until the liposomes were lysed with detergent. […] In effect, compound 2 moves […] along with Cl^− down the chloride gradient, consequently building a pH gradient across the membrane. Therefore, NaCl filled vesicles lose Cl^− and H^+ upon addition of 2 and become more alkaline.
Calcein-Release Assay. Calcein-loaded vesicles (100 μL of the stock solution), filled with a saline phosphate buffer (10 mM sodium phosphate, pH 6.4, […] NaCl), were suspended in 1.85 mL of an isoosmotic phosphate sulfate buffer (10 mM sodium phosphate, pH 6.4^−75 mM (Na2SO4) and placed into a fluorimetric cell. HPTS emission at 510 nm was monitored with excitation wavelengths at 403 and 460 nm simultaneously. During the experiment, 20 μL of a 0-500 μM THF solution of the compound of interest was added through an injection port. Intravesicular pH values were obtained as a function of the ratio of HPTS emission intensities at 510 nm, when excited at 403 and 460 nm. […]

[2] = calcein dye release assay (lytic potential); assay type: biochemical; settings: 5-100 μM, 1-20 mol % ligand; LUVs containing 120 mM calcein
Procedure: Calix[4]arene tetrabutylamide 2 may transport ions across LUVs by inducing membrane defects, by uniport of ions, or via cotransport of ion pairs ([…], M^− or OH^−/A^− antiport and H^+/A^− or M^+/OH^− symport mechanisms are possible). The lytic potential of 2 was evaluated using a dye release assay. The self-quenching dye calcein loses 95% of its fluorescence emission at concentrations above 100 mM. 2.
EYPC Calcein-Containing Vesicles: Calcein (224.1 mg, 0.36 mmol) was suspended in 3 mL of phosphate buffer (100 mM NaCl, 10 mM sodium phosphate, pH 6.4). The pH of the solution was adjusted to 6.4 with a 7.4 M NaOH-containing phosphate buffer, at which point all the calcein was dissolved to give a 120 mM solution of the dye. The molality of the extravesicular buffer was adjusted to equal that of the calcein-containing solution with 1 m NaCl. Osmomolality was determined by VPO. A thin film was prepared from 60 mg of EYPC ([…]) as described above. The lipid film was hydrated in 1.2 mL of the calcein buffer. During hydration, the suspension was submitted to five freeze-thaw cycles (dry ice in acetone, water at room temperature) and then submitted to high-pressure extrusion (2) extrusions through a 0.1 μm polycarbonate membrane afforded LUVs with an average diameter of 100 nm). […]

[3] = 1H NMR binding experiment in CDCl3 with n-Bu4-NCl
Procedure: FIG. 7 illustrates a series of […] spectra (400 mHz, CDCl3, 22° C.) of calixarene tetrabutylamide in the presence of different species: (A) the compound alone (5 mm); (B) the compound with 1 equiv. of Bu4 NCl; (C) the compound after washing CDCl3 solution of the compound with an aqueous solution of 0.5 m HCl; (D) after washing CDCl3 solution of the compound with an aqueous solution of 0.5 M H2SO4.
To obtain evidence for Cl^− binding by 2, ^1H NMR experiments were run in CDCl3 using n-Bu4-NCl and HCl as Cl^− sources. Anion receptors usually show chemical shift perturbation upon anion complexation, particularly for amide NH protons that hydrogen bond to the anion. […] Calix[4]arene tetrabutylamide 2 does, however, bind HCl. Thus, shaking a CDCl3 solution of 2 with aqueous HCl led to disappearance of the amide NH proton and a significant upfield shift of the […] protons (FIG. 4c).

[4] = voltage-clamp experiments on black lipid membranes; assay type: biochemical
Procedure: FIG. 10(A) represents current events across a BLM in voltage clamp experiments after application of calixarene tetrabutylamide 2 ([…]). The voltage applied was −20 mV for all three recordings. (B) The distribution of conductance ranges observed in voltage clamp experiments with 2 acting as an ion channel.
The voltage-clamp assay was conducted using a setup with two chambers, each filled with an electrolyte solution and separated by a BLM. After voltage was applied across the membrane, a solution of 2 was added to one of the chambers. Subsequent current across the membrane was attributed to ion transport mediated by 2, since control experiments wit DMSO solvent were negative. The abrupt changes in current intensity (events) are consistent with an ion channel mechanism. The relatively long-lasting open states indicate that channels formed by calixarene tetrabutylamide 2 are stable.
Voltage-Clamp Experiments. […] Once calixarene tetrabutylamide 2 was incorporated into the lipid, the current through the membrane was recorded using both a chart recorder and directly digitized and stored as a computer file. The conductance values were calculated by dividing the current by the applied voltage. The events were grouped into conductance ranges of equal magnitude for the purpose of showing the distribution of recorded conductances.

SMILES: CCCCNC(=O)COc1c2cccc1Cc1cccc(c1OCC(=O)NCCCC)Cc1cccc(c1OCC(=O)NCCCC)Cc1cccc(c1OCC(=O)NCCCC)C2 [calix[4]arene tetrabutylamide 2, Calix[4]arene tetrabutylamide]
- change of intravesicular pH / pH gradient formation [1]: rapid increase in intravesicular pH
- time to maximum intravesicular pH after addition [1]: 250 s
- calcein fluorescence (membrane defects) [2]: no fluorescence enhancement
- binding of the naked Cl− anion [3]: does not bind strongly
- stability of the channels (open states) [4]: stable
- centre of the conductance distribution ([4]; 480 events, 1 M KCl): ~100 pS
